Data: patent US20150237877A1, “METHODS OF HANDLING PERSIMMONS” (AGROFRESH INC., priority 2012, published 2015)

Experiments:
Assay type in all cases: in vivo, Persimmon (Diasoyros kaki)
persimmons, variety Fuyu = experiment: Example 3: pulp firmness of persimmons, MCP before storage; conditions: for Pulp Firmness, Days 0 / Pulp Firmness, Days 3 / Pulp Firmness, Days 6: 500 ppb of MCP; for Pulp Firmness, Days 0: Day 0 after 60 days cold storage; for Pulp Firmness, Days 3: Day 3 after 60 days cold storage; for Pulp Firmness, Days 6: Day 6 after 60 days cold storage
Protocol: Persimmons are harvested in Madera—Calif. —USA and packed in cardboard boxes and shipped to Davis—Calif. At the same day of harvest part of the persimmons are packed in MAP bags. • Location: USA • Variety: Fuyu (non astringent, doesn't need ethanol application, ready to eat after harvest) • Storage at 0° C. for 60 days • MCP application before the storage • MAP Bag: Amcor bag type 30EF90.
The Amcor bag type 30EF90 has dimensions of 39.5″ (100.3 cm) wide and 35″ (88.9 cm) long. The bag is not perforated and has 25 microns thickness with an oxygen (O2) permeability of 6750 cc/[m^2 day]. The OTR of the bag is calculated to be 7560 cm^3/day.
The Test Protocol is as follows. 4 MAP bags are packed. Each bag holds approximately 10 kg (22.5 lb) of persimmons. One such bag is packed in each RPC (Recycle Plastic Container). Total weight of persimmons in MAP bags is approximately 40 kg. Approximately 40 kg of persimmons are placed into RPC identical to those used for the MAP bags.
The MAP-packaged persimmons are packaged as follows: 80 fruits, approximately 10 kg were carefully placed into microperforated bags, and the bags are sealed by twisting the open side of the bag, folding down the twisted end, and placing a rubber band around the twisted and folded end of the bag.
The appropriate weight of persimmons is placed in each bag after harvest and shipment. Bags are placed in RPC carrying devices. Persimmons then are moved to a Cold Room at 0° C.
(§1) On the same day the persimmons are bagged, each treatment set is marked, placed in a hermetical chamber at the Cold Room. All chambers are of equal size and packed the same way. Treatment lasts for 12 hours. In the chambers for the “MCP” treatment groups, at the beginning of the treatment period, SmartTabs™ tablets are placed in the chamber. The amount of SmartTab™ tablets is chosen to achieve the indicated concentration of 1-methylcyclopropene in the atmosphere of the chamber.
After 60 days of storage at Cold Room, the bags are removed and the RPCs are moved into racks at room temperature for storage and observation.
Evaluation firmness is as follows. Day “zero” is the day the persimmons are removed from the cold storage.
(§2) For the Pulp Firmness evaluation, the persimmons have the skin removed with a peeler and the pulp firmness is measured with a Firmness Texture Analyzer (FTA) with a probe of 8 mm.

[1] = system: persimmons, variety Rojo Brillante; experiment: Example 4: pulp firmness of persimmons, MCP before storage, CO2 astringency removal after storage; conditions: cold storage, then room temperature for 7 days, MCP 600 ppb where applied
Protocol: Persimmons are harvested in Valencia—Spain and in the packing house part of the fruits are packed in plastic boxes and the other part is packed in MAP bags. • Location: Spain • Variety: Rojo Brillante (astringent, need CO2 application, ready to eat after astringency removal process) • Storage at 0° C. for 72 days • MCP application before the storage • MAP Bag: PE/EVA OP and Nylon bag with dimensions of 27″ (68.6 cm) width by 28″ (71.1 cm) length made from Kenylon 6250 Polyamide Film available from FM • Packaging
The Test Protocol is as follows. • a. PE/EVA OP Bags: 3 kg (6.6 lb) of fruits per bag, 5 bags per box and 6 RPC boxes • b. PE/EVA 8P Bags: 1 kg (2.2 lb) of fruits per bag, 15 bags per box and 6 RPC boxes • c. Nylon 0.2 and 0.35: 10 kg (22.5 lb) of fruits per bag, 2 bag per box and 6 RPC boxes • d. No Bag: 20 kg of fruits per box and 6 RPC boxes
The MAP-packaged persimmons are packaged as follows: fruits are carefully placed into microperforated bags, and the bags are sealed by twisting the open side of the bag, folding down the twisted end, and placing a rubber band around the twisted and folded end of the bag.
The appropriate weight of persimmons is placed in each bag after harvest and shipment. […]
For the Pulp Firmness evaluation, the persimmons have the skin removed with a peeler and the pulp firmness is measured with a Manual Penetrometer with a probe of 8 mm.

persimmons = experiment: Example 2: pulp firmness of persimmons, 1-MCP and ethanol before storage; conditions: for Pulp Firmness, Day 0 / Pulp Firmness, Day 1 / Pulp Firmness, Day 4 / Pulp Firmness, Day 7 / Pulp Firmness, Day 10: 1000 ppb of MCP
Description: This Example uses a similar test to Example 1 but with the ethanol application before the storage, at the same time as 1-MCP application.
Persimmons are harvested in Mogi das Cruzes—SP—Brazil and packed in RPC (Recycle Plastic Container) and shipped to Piracicaba—SP. At the same day of harvest part of the persimmons are packed in MAP bags.
(§3) The Test Protocol is as follows. 4 MAP bags are packed. Each bag holds approximately 16 kg (36 lb) of persimmons. One such bag is packed in each RPC. Total weight of persimmons in MAP bags is approximately 64 kg. Approximately 64 kg of persimmons are placed into RPC identical to those used for the MAP bags.
(§4) The MAP-packaged persimmons are packaged as follows: 80 fruits, approximately 16 kg are carefully placed into microperforated bags, and the bags are sealed by twisting the open side of the bag, folding down the twisted end, and placing a rubber band around the twisted and folded end of the bag.
(§5) The appropriate weight of persimmons is placed in each bag after harvest and shipment. Bags are placed in RPC carrying devices. Persimmons are moved to a Cold Room at 12° C. next.
On the same day the persimmons are bagged, each treatment set is marked, placed in a hermetical chamber at the Cold Room. All chambers are of equal size and packed the same way. Treatment lasts for 12 hours. In the chambers for the “MCP” treatment groups, at the beginning of the treatment period, SmartTabs™ tablets are placed in the chamber. The amount of SmartTab™ tablets is chosen to achieve the indicated concentration of 1-methylcyclopropene in the atmosphere of the chamber. At the same time the persimmons are exposed to ethanol with the purpose of removing the astringency (3.5 mL/kg of fruit).
After the storage at Cold Room, the bags are removed and the RPCs are moved into racks at room temperature for storage and observation.
Evaluation firmness is as follows. Day “zero” is the day the persimmons are harvested and Day “one” is the day the persimmons are removed from the cold storage.
as §2

[2] = system: persimmons, variety Giombo; experiment: Example 1: pulp firmness of persimmons, MCP before storage, ethanol after storage; conditions: for Pulp Firmness, Day 0 / Pulp Firmness, Day 1 / Pulp Firmness, Day 4: 1000 ppb of MCP
Protocol: Persimmons are harvested in Mogi das Cruzes—SP—Brazil and packed in RPC (Recycle Plastic Container) and shipped to Piracicaba—SP. At the same day of harvest part of the persimmons are packed in MAP bags. • Location: Brazil • Variety: Giombo (astringent and need to be treated with ethanol to be ready to eat) • Storage at 12° C. for 15 days • MAP Bag: a Nylon bag with dimensions of 27″ (68.6 cm) width by 28″ (71.1 cm) length made from Kenylon 6250 Polyamide Film available from FM Packaging. • MCP application before the storage • Ethanol Application after the storage
For the MAP bag used, the base film has 25 microns thickness without laser holes. The oxygen (O2) permeation of the MAP bag used is about 28 cc/m^2-day and the CO2 permeation is about 227 cc/m^2-day. The bags are laser drilled in the length direction with 105 micron holes at two locations 9″ (22.9 cm) from each side of the bag. The hole spacing is 9.06 mm. The total number of laser holes in the 20″ (8″ for tie off) length direction of the bag are about 228 holes. At an average hole diameter of 105 micron (pi×r^2=8630 micron^2), the 228 holes can provide an open area of ˜2.0 mm^2. The OTR of the bag is calculated to be 32,250 cm^3/day.
as §3, §4, §5, §1
Persimmons used in this trial are an astringent variety. To remove the astringency the fruits were treated with ethanol after the 15 days at cold storage.
After removed the bags for the MAP bag groups, all the fruits are placed in a hermetical chamber and treated with ethanol (3.5 mL/kg of fruit) for 12 hours.
After the treatment in the chambers, the RPCs are moved into racks at room temperature for storage and observation.
Firmness evaluation is as follows. Day “zero” was the day the persimmons are harvested and Day “one” is the day the persimmons are removed from the ethanol treatment.
as §2

[3] = Day 0 = day of harvest, MCP 1000 ppb where applied

CC1=CC1 [SmartFresh, 1-methylcyclopropene]
Firmness results, d60 + 3 day (persimmons, variety Fuyu; 60 days at 0° C. + 3 days at room temperature, MCP 500 ppb where applied): 9.1 lbf | Firmness results, d60 + 6 day (persimmons, variety Fuyu; 60 days at 0° C. + 6 days at room temperature, MCP 500 ppb where applied): 6.7 lbf | Firmness results, d60 + 0 day (persimmons, variety Fuyu; 60 days at 0° C., day removed from the cold storage, MCP 500 ppb where applied): 7.9 lbf | Pulp Firmness, Days 0 (persimmons, variety Fuyu; Bag MAP (Amcor)): 11.1 lbf | Pulp Firmness, Days 3 (persimmons, variety Fuyu; Bag MAP (Amcor)): 10.0 lbf | Pulp Firmness, Days 6 (persimmons, variety Fuyu; Bag MAP (Amcor)): 9.9 lbf | Pulp Firmness, Days 0 (persimmons, variety Fuyu; No Bag): 7.9 lbf | Pulp Firmness, Days 3 (persimmons, variety Fuyu; No Bag): 9.1 lbf | Pulp Firmness, Days 6 (persimmons, variety Fuyu; No Bag): 6.7 lbf | Firmness difference (Δ) as compared to the control group, d60 + 6 day (persimmons, variety Fuyu; d60 + 6 day): 6.2 lbf | firmness provided to the persimmons / maintained higher than the untreated fruits (persimmons, variety Fuyu; in vivo): 6.2 lbf | Firmness [1]: 3.33 kg | Δ, difference between the firmness for the treatment and the firmness for the No Bag treatment [1]: 1.33 kg | Pulp Firmness, Day 0 (persimmons; Bag MAP): 20.99 lbf | Pulp Firmness, Day 1 (persimmons; Bag MAP, Day 1): 18.16 lbf | Pulp Firmness, Day 4 (persimmons; Bag MAP, Day 4): 16.94 lbf | Pulp Firmness, Day 7 (persimmons; Bag MAP): 15.84 lbf | Pulp Firmness, Day 10 (persimmons; Bag MAP): 14.23 lbf | Firmness results, Day 0 (persimmons; [3]): 20.99 lbf | Firmness difference (Δ) as compared to the control group, Day 1 (persimmons; Day 1): 0.15 lbf | Firmness results, Day 1 (persimmons; Day 1 = day removed from the cold storage (12° C.), MCP 1000 ppb where applied): 16.65 lbf | Firmness difference (Δ) as compared to the control group, Day 4 (persimmons; Day 4): −0.39 lbf | Firmness results, Day 4 (persimmons; Day 4, room temperature after cold storage, MCP 1000 ppb where applied): 14.74 lbf | Pulp Firmness, Day 0 (persimmons; No Bag): 20.99 lbf | Pulp Firmness, Day 1 (persimmons; No Bag, Day 1): 17.87 lbf | Pulp Firmness, Day 4 (persimmons; No Bag, Day 4): 15.09 lbf | Pulp Firmness, Day 7 (persimmons; No Bag): 13.70 lbf | Pulp Firmness, Day 10 (persimmons; No Bag): 12.62 lbf | firmness provided to the persimmons (persimmons; after 7 day at room temperature): 1.55 lbf | Pulp Firmness, Day 0 ([2]; Bag MAP): 20.99 lbf | Pulp Firmness, Day 1 ([2]; Bag MAP): 18.62 lbf | Pulp Firmness, Day 4 ([2]; Bag MAP, Day 4): 18.18 lbf | Firmness results, Day 0 [2, 3]: 20.99 lbf | Firmness results, Day 1 ([2]; Day 1 = day removed from ethanol treatment, after 15 days at 12° C., MCP 1000 ppb where applied): 17.87 lbf | Firmness difference (Δ) as compared to the control group, Day 4 ([2]; Day 4): 0.89 lbf | Firmness results, Day 4 ([2]; Day 4, room temperature after 15 days at 12° C. and ethanol, MCP 1000 ppb where applied): 15.09 lbf | Firmness difference (Δ) as compared to the control group, Day 7 ([2]; Day 7): 1.55 lbf | Firmness results, Day 7 ([2]; Day 7, room temperature after 15 days at 12° C. and ethanol, MCP 1000 ppb where applied): 13.70 lbf | Firmness results, Day 10 ([2]; Day 10, room temperature after 15 days at 12° C. and ethanol, MCP 1000 ppb where applied): 12.62 lbf | Pulp Firmness, Day 0 ([2]; No Bag): 20.99 lbf | Pulp Firmness, Day 1 ([2]; No Bag): 16.65 lbf | Pulp Firmness, Day 4 ([2]; No Bag, Day 4): 14.74 lbf | firmness provided to the persimmons ([2]; after 1 day at room temperature): 0.15 lbf
